In test [1] the test system is recombinant activated JNK. Description: in vitro kinase assay JNK (ADP-Glo). Type of test: biochemical. The note with it: 100 μM ATP; for % of inhibition at 1 μM, JNK: 1 μM compound; for % of inhibition at 10 μM, JNK: 10 μM compound. How it is done:
(§1) Purified recombinant activated JNK (10 nM) (ProQinase) was preincubated 10 minutes at 30° C. with the compound of interest at concentrations between 1 and 100 μM in duplicate in a final volume of 30 μl of kinase buffer (Hepes 60 mM pH 7.5, MgCl2 3 mM, MnCl2 3 mM, sodium orthovanadate 3 μM, DTT 1.2 mM). After preincubation, peptide substrate (SignalChem #P03-58) and ATP were added to a final concentration of 10 μM and 100 μM respectively, and then incubated 40 minutes at 30° C. for the kinase reaction. Phosphorylation was analyzed with ADP-Glo™ (Promega #V9101) and emitted luminescence was measured with BMG Fluostar microplate reader.

The target of test [2] is T1, recombinant activated p38alpha (Homo sapiens, UniProt Q16539).
T1 construct: purchased ProQinase
T1 sequence (Q16539 whole entry): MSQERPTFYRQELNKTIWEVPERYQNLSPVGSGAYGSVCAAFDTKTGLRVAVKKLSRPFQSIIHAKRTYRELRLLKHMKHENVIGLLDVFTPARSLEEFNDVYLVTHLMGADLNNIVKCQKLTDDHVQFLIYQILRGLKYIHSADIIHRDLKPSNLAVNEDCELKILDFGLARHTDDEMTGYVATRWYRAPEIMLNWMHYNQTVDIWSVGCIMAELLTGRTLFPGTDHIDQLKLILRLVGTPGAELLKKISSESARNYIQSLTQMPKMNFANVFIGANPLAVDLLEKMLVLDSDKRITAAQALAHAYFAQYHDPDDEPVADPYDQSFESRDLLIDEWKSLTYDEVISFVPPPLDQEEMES
Description: in vitro kinase assay p38 (ADP-Glo). The conditions noted are these: 100 μM ATP; for inhibition at 1 µM: 1 μM compound; for inhibition at 10 µM: 10 μM compound. The class given is biochemical. How it is done:
as §1, with “p38alpha” for “JNK”, “nM)(ProQinase)” for “nM) (ProQinase)”, “analysed” for “analyzed”
Background: In ADP-Glo the light output rises with the ADP produced.

Test [3] has as its system TNF-α secretion by a human monocytic cell line, THP-1. Nature of the test: Inhibition of TNF-α secretion by LPS-stimulated THP-1 cells (ELISA). Type of test: cell-based. The conditions noted are these: LPS-stimulated THP-1, TNF-α; for inhibition at 1 µM: 1 μM compound, read-out: % of inhibition at 1 μM, THP1; for inhibition at 10 µM: 10 μM compound, read-out: % of inhibition at 10 μM, THP1. How it is done:
Thp1-Inhibition of TNF-α Secretion by a Human Monocytic Cell Line, THP-1
THP-1 cells, growing in log phase, were collected by centrifugation and resuspended in RPMI 1640 (Sigma Aldrich), to a final cell concentration of 2×10^6 cells/ml. Cells were plated into 24-well plates (BD Biosciences). Dilutions of compounds in dimethyl sulfoxide (DMSO) were added to the culture to a final concentration M. The final DMSO concentration was 0.5%. The cells […] suspensions were preincubated with compounds for 1 h at 37° C. in a 5% CO2 humidified atmosphere before the addition of LPS (Sigma Aldrich, L2654) to a g/ml. After that, cells were incubated for 3 h followed final concentration of […] by centrifugation to pellet cells. Cell supernatants were stored at 4° C. until human analysis for TNF-α content. TNF-α levels were determined by ELISA (TNF Biotrak, GE Healthcare) following the manufacturer's directions. The percentage inhibition was calculated for each compound concentration tested, and the IC50 was calculated for each compound.

Broadly, the inhibition is the change of the read-out against control, counted positive when it falls.

Regarding `CCCOc1ccc(Nc2nc3nonc3nc2N2CCN(Cc3ccc(Cl)cc3)CC2)cc1` [Comp 9], in test [1], the “% of inhibition at 1 μM, JNK” value was found to be 26% and the “% of inhibition at 10 μM, JNK” value came out at 51%. In test [2], the inhibition at 1 µM stood at 23% and the inhibition at 10 µM is 68%. Moreover, in test [3], the inhibition at 1 µM worked out at 27% and the inhibition at 10 µM came to 39%.

Regarding `CCOc1cccc(Nc2nc3nonc3nc2N2CCC(Sc3ccc(C)cc3)CC2)c1` [Comp 8], in test [1], the “% of inhibition at 1 μM, JNK” value is reported as 32% and the “% of inhibition at 10 μM, JNK” value is given as 55%. Also, in test [2], the inhibition at 1 µM is 16% and the inhibition at 10 µM amounted to 64%. Moreover, in test [3], the inhibition at 1 µM was found to be 17% and the inhibition at 10 µM amounted to 37%.

As to `CCOc1ccc(Nc2nc3nonc3nc2N2CCN(Cc3ccc(Cl)cc3)CC2)cc1` [Comp 10], in test [1], the “% of inhibition at 1 μM, JNK” value is 30% and the “% of inhibition at 10 μM, JNK” value was found to be 50%. In addition, in test [2], the inhibition at 1 µM was 25% and the inhibition at 10 µM came to 52%. For the same compound, in test [3], the inhibition at 1 µM is 19% and the inhibition at 10 µM stood at 31%.

In the case of `CCOc1cccc(Nc2nc3nonc3nc2N2CCC(Oc3ccc(Cl)cc3)CC2)c1` [Comp 4], in test [1], the “% of inhibition at 1 μM, JNK” value is 31% and the “% of inhibition at 10 μM, JNK” value was found to be 74%. Also, in test [2], the inhibition at 1 µM stood at 25% and the inhibition at 10 µM stood at 68%. Besides, in test [3], the inhibition at 1 µM worked out at 19% and the inhibition at 10 µM came to 41%.

As to `CCCOc1cccc(Nc2nc3nonc3nc2N2CCC(Oc3ccc(Cl)cc3)CC2)c1` [Comp 3], in test [1], the “% of inhibition at 1 μM, JNK” value was 31% and the “% of inhibition at 10 μM, JNK” value is on record as 96%. In addition, in test [2], the inhibition at 1 µM worked out at 23% and the inhibition at 10 µM worked out at 100%. In addition, in test [3], the inhibition at 1 µM was 37% and the inhibition at 10 µM was determined as 58%.

In the case of `CCOc1ccc(Nc2nc3nonc3nc2N2CCC(Sc3ccc(C)cc3)CC2)cc1` [Comp 6], in test [1], the “% of inhibition at 1 μM, JNK” value was 35% and the “% of inhibition at 10 μM, JNK” value was 91%. In test [2], the inhibition at 1 µM worked out at 32% and the inhibition at 10 µM came to 95%. Moreover, in test [3], the inhibition at 1 µM stood at 28% and the inhibition at 10 µM was found to be 39%.

Regarding `CCCOc1ccc(Nc2nc3nonc3nc2N2CCC(Sc3ccc(C)cc3)CC2)cc1` [Comp 5], in test [1], the “% of inhibition at 1 μM, JNK” value stood at 37% and the “% of inhibition at 10 μM, JNK” value was determined as 97%. In test [2], the inhibition at 1 µM was 41% and the inhibition at 10 µM was 100%. For the same compound, in test [3], the inhibition at 1 µM came out at 44% and the inhibition at 10 µM came out at 65%.

Turning to `Clc1ccc(OC2CCN(c3nc4nonc4nc3Nc3ccc4c(c3)CCO4)CC2)cc1` [Comp 11], in test [1], the “% of inhibition at 1 μM, JNK” value was determined as 24% and the “% of inhibition at 10 μM, JNK” value is on record as 74%. Moreover, in test [2], the inhibition at 1 µM stood at 21% and the inhibition at 10 µM was 105%. In test [3], the inhibition at 1 µM was determined as 30% and the inhibition at 10 µM amounted to 50%.

As to `CCCOc1cccc(Nc2nc3nonc3nc2N2CCC(Sc3ccc(C)cc3)CC2)c1` [Comp 7], in test [1], the “% of inhibition at 1 μM, JNK” value worked out at 34% and the “% of inhibition at 10 μM, JNK” value is recorded as 101%. In test [2], the inhibition at 1 µM was found to be 19% and the inhibition at 10 µM came to 87%. For the same compound, in test [3], the inhibition at 1 µM was 21% and the inhibition at 10 µM is 33%.

Turning to `Clc1ccc(OC2CCN(c3nc4nonc4nc3Nc3ccc4occc4c3)CC2)cc1` [Comp 12], in test [1], the “% of inhibition at 1 μM, JNK” value is 24% and the “% of inhibition at 10 μM, JNK” value amounted to 90%. In test [2], the inhibition at 1 µM worked out at 15% and the inhibition at 10 µM stood at 95%. In addition, in test [3], the inhibition at 1 µM amounted to 45% and the inhibition at 10 µM was 51%.

Consider `CCOc1ccc(Nc2nc3nonc3nc2N2CCC(Oc3ccc(Cl)cc3)CC2)cc1` [Comp 2], for which, in test [1], the “% of inhibition at 1 μM, JNK” value was 36% and the “% of inhibition at 10 μM, JNK” value is 91%. Besides, in test [2], the inhibition at 1 µM turned out to be 41% and the inhibition at 10 µM worked out at 87%. In test [3], the inhibition at 1 µM came to 42% and the inhibition at 10 µM stood at 69%.

The record behind these values is US9908896B2, “P38 and JNK MAPK inhibitors for the treatment and prophylaxis of degenerative diseases of the nervous system” (ALLINKY BIOPHARMA, priority 2014, dated 2018).
